Test results taken from ChEMBL document CHEMBL3351490, “The discovery of potent, orally bioavailable pyrimidine-5-carbonitrile-6-alkyl CXCR2 receptor antagonists” (Bioorg Med Chem Lett, 2014).
Converted amounts (≈) assume the structure as drawn.

How the values were obtained:
[1] = molecular target: T1, C-X-C chemokine receptor type 2 (Homo sapiens, UniProt P25025); assay: Antagonist activity against human recombinant CXCR2 receptor expressed in CHO cell membranes by SPA based [35S]GTPgammaS binding assay; type: functional
T1 sequence (P25025 whole entry): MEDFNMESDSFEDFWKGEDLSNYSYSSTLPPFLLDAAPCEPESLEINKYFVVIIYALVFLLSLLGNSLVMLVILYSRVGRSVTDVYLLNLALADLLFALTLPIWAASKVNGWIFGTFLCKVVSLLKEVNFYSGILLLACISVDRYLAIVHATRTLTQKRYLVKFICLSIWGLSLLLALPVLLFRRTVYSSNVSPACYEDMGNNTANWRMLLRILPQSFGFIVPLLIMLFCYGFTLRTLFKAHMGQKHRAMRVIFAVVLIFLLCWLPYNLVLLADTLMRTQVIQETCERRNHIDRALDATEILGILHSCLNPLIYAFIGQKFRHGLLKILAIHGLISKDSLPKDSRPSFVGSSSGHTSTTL

[2] = molecular target: T2, C-X-C chemokine receptor type 2 (Homo sapiens) (UniProt P25025); assay: Antagonist activity against human recombinant CXCR2 receptor expressed in CHO cell membranes at 10 uM by SPA based [35S]GTPgammaS binding assay; type: functional
T2 sequence (whole entry): T1 sequence (P25025 whole entry)

[3] = molecular target: T1, C-X-C chemokine receptor type 2; assay: Displacement of [125I]-GRO-alpha from human recombinant CXCR2 receptor expressed in CHO cell membranes
[4] = Oral bioavailability in rat; type: ADME, organism-based; settings: in vivo
[5] = Dissociation constant, pKa of the compound; type: physicochemical
[6] = Protein binding in rat plasma; type: ADME, cell-free; settings: read-out: PPB
[7] = Equilibrium solubility at pH 6.8; type: physicochemical; settings: buffer
[8] = Half life in iv dosed rat; type: ADME, organism-based; settings: in vivo
[9] = Clearance in iv dosed rat; type: ADME, organism-based; settings: in vivo
[10] = Volume of distribution at steady state in iv dosed rat; type: ADME, organism-based; settings: in vivo, read-out: Vdss

Structure (SMILES)	IC50 [1]	inhibition [2]	also measured
COc1ccc(-c2nc(SCc3cccc(F)c3F)nc(O)c2C#N)cc1C	4600 nM	> 50%	–
Oc1nc(SCc2cccc(F)c2F)nc(C2CC2)c1Br	1400 nM	–	–
N#Cc1c(O)nc(SCc2c(Cl)cccc2Cl)nc1-c1ccccc1	> 30000 nM	–	IC50 [3]: 4300 nM
N#Cc1c(O)nc(SCc2cccc(F)c2F)nc1[C@H]1C[C@@H]1C(N)=O	7 nM	–	–
N#Cc1c(O)nc(SCc2cccc(F)c2F)nc1[C@H]1C[C@@H]1C(=O)O	10 nM	–	–
Cc1cccc(-c2nc(SCc3cccc(F)c3F)nc(O)c2C#N)c1	4700 nM	> 50%	–
N#Cc1c(O)nc(SCc2cccc(F)c2F)nc1C1CCC1	1700 nM	> 50%	–
Oc1nc(SCc2cccc(F)c2F)nc(C2CC2)c1I	3200 nM	–	–
CS(=O)(=O)Nc1nc(SCc2cccc(F)c2F)nc(-c2ccccc2)c1C#N	> 30000 nM	–	–
N#Cc1c(O)nc(SCc2cccc(F)c2F)nc1-c1ccccc1	3700 nM	–	–
N#Cc1c(O)nc(CSc2cccc(F)c2F)nc1C1CC1	10000 nM	–	–
N#Cc1c(O)nc(SCc2cccc(F)c2F)nc1[C@H]1C[C@@H]1CO	6 nM	–	–
CC(C)(C)c1nc(SCc2cccc(F)c2F)nc(O)c1C#N	3700 nM	> 50%	–
N#Cc1c(O)nc(SCc2cccc(F)c2F)nc1-c1ccc(Cl)cc1	7400 nM	> 50%	–
N#Cc1c(O)nc(CSc2ccccc2)nc1C1CC1	> 30000 nM	–	–
CC(Sc1nc(O)c(C#N)c(C2CC2)n1)c1ccccc1 (stereo not drawn)	4800 nM	–	–

Structure (SMILES)	IC50 [1]	inhibition [2]	also measured
Cc1nc(SCc2cccc(F)c2F)nc(O)c1C#N	4300 nM	> 50%	–
CC(C)c1nc(SCc2cccc(F)c2F)nc(O)c1C#N	900 nM	> 50%	–
N#Cc1c(O)nc(SCc2cccc(F)c2F)nc1C1CCCC1	4900 nM	> 50%	–
CC(C)(CO)Nc1nc(SCc2cccc(F)c2F)nc(-c2ccccc2)c1C#N	> 30000 nM	–	–
Cc1ccc(-c2nc(SCc3cccc(F)c3F)nc(O)c2C#N)cc1	1400 nM	> 50%	–
CCOC(=O)[C@H]1C[C@@H]1c1nc(SCc2cccc(F)c2F)nc(O)c1C#N (racemic)	1500 nM	–	–
N#Cc1c(O)nc(SCc2cccc(F)c2F)nc1-c1ccc(O)cc1	780 nM	> 50%	–
CCOC(=O)[C@H]1C[C@@H]1c1nc(SCc2cccc(F)c2F)nc(O)c1C#N (stereo in doubt; form 1)	320 nM	–	–
COc1ccc(-c2nc(SCc3cccc(F)c3F)nc(O)c2C#N)cc1	710 nM	> 50%	–
CC(C)Oc1ccc(-c2nc(SCc3cccc(F)c3F)nc(O)c2C#N)cc1	1600 nM	> 50%	–
CCOC(=O)[C@H]1C[C@@H]1c1nc(SCc2cccc(F)c2F)nc(O)c1C#N (stereo in doubt; form 2)	1300 nM	–	–
CC(C)(Sc1nc(O)c(C#N)c(C2CC2)n1)c1ccccc1	6400 nM	–	–
N#Cc1c(O)nc(SCc2ccccc2)nc1C1CC1	510 nM	–	–
N#Cc1c(O)nc(SCc2cccc(F)c2F)nc1C1CC1	140 nM	> 50%	bioavailability [4]: > 100%; pKa [5]: 8.9; fraction unbound [6]: < 0.01; IC50 [3]: 40 nM; solubility thermodynamic [7]: 10 µg/mL (≈ 31.3 µM); half-life [8]: 6 h; clearance [9]: 1.6 mL/min/kg; Vd [10]: 0.2 L/kg
Oc1cc(C2CC2)nc(SCc2cccc(F)c2F)n1	320 nM	–	–
